Assay results from ChEMBL document CHEMBL1158672, “Rubrobramide, a cytotoxic and phytotoxic metabolite from Cladobotyrum rubrobrunnescens” (1998).
≈ marks a conversion by molar mass, not a printed value. Calls of active or inactive are those of the source. The rule behind the calls is not given here.

What was measured:
Lepidium sativum = experiment: Phytotoxicity against Lepidium sativum assessed as inhibition of seedling germination at 100 ug/mL; type: functional; set-up: scale not given: the % may be the effect or the level left
HeLa S3 = experiment: Cytotoxicity against human HeLaS3 cells up to 100 ug/mL; type: functional, cell-based
HL-60 = experiment: Cytotoxicity against human HL60 cells up to 100 ug/mL; type: functional, cell-based
Setaria italica = experiment: Phytotoxicity against Setaria italica assessed as inhibition of seedling germination at 100 ug/mL; type: functional; set-up: scale not given: the % may be the effect or the level left
Meloidogyne incognita [1] = experiment: Nematicidal activity against Meloidogyne incognita up to 100 ug/mL; type: functional, organism-based
L1210 = experiment: Antiproliferative activity against mouse L1210 cells at 50 ug/mL; type: functional
Meloidogyne incognita [2] = experiment: Nematicidal activity against Meloidogyne incognita; type: functional; conditions: read-out: LD50 (the source's name)

SMILES	Activity (Lepidium sativum) [%]	Activity (HeLa S3)	Activity (HL-60)	Activity (Setaria italica) [%]	Activity (Meloidogyne incognita [1])	Activity (L1210) [%]	LC50 (Meloidogyne incognita [2]) [µg/mL]
CC(C)C[C@]12NC(=O)[C@@]3(O)C(=O)C[C@](C)(O[C@H]31)O2 [RUBROBRAMIDE]	50	inactive	inactive	50	inactive	50	–
COc1c(-c2ccco2)coc(=O)c1C [CLADOBOTRIN]	–	–	–	–	–	–	100 (≈ 485 µM)
